Data from patent publication US20210260106A1, “CHLORITE-CONTAINING COMPOSITIONS” (ClearCrescent Technologies, LLC, priority 2008, published 2021).
Converted amounts (≈) assume the structure as drawn. Where two headings read alike, the source gives them in different places. Each block holds one compound with its values, some of them ahead of it.

Experiments:
[1] = Topical treatment of psoriasis, divided elbow, one subject; assay type: in vivo, human; details: for Result after 3 days treated twice daily: elbow section
Excerpt: Background: A subject suffered from Psoriasis diagnosed […]. They have not undergone treatment for their condition since 1996. They report rash after bathing that turns to white plaques with scaling within days. Treatment 1: […] They then distributed the combination to the entire affected right lateral section of their elbow. Treatment 2: […] They then distributed the combination to the entire affected outside lateral section. Treatment 3: […] They then distributed the combination to the entire affected interior lateral section.

[2] = test system: Trichophyton rubrum ATCC MYA 4438; test: MIC study in broth culture, sodium chlorite and itraconazole; assay type: cell-based; details: for MIC: Trichophyton rubrum, read-out: amount of Itraconazole required to inhibit the fungus (MIC)
Description: As shown in the examples, in vitro data was generated and the minimum inhibitory concentrations (MIC) tests were determined in broth culture using ATCC MYA 4438. Itraconazole is the azole used in the study. […] On the X-axis are dilutions of itraconazole. Fungal Growth is noted by a + and lack of growth by a −.
Referring to FIG. 18, the experiments were repeated with the strain Trichophyton rubrum.

[3] = test system: Trichophyton mentagrophytes ATCC MYA 4439; test: as above; assay type: cell-based; details: for MIC: Trichophyton mentagrophytes, read-out: amount of Itraconazole required to inhibit the fungus (MIC)
[4] = test system: onychomycosis; fungal infections of the skin and nails; test: Azole antifungals tested on fungal infections of skin and nails; parameters: species or system human; details: in vivo
[5] = assay type: in vivo, human
Excerpt: Compositions were topically applied to various skin and nail conditions. […] The solution was applied by dropper to affected areas, or combined with a bioactive agent and then applied to the affected area or applied sequentially to the affected area at least once daily, preferably twice daily during treatment period. […] Background: A subject was diagnosed with Dyshidrosis in March of 2012. Symptoms included small blisters on the palms of their hands and the underside of their fingers with scaling. […] They abandoned the treatment. Symptoms continued. They occasionally self-treated the condition with over the counter Lamisil. […] Treatment: […]

Treatment of dog wound = assay type: in vivo; details: rear leg
Excerpt: Dog was occasionally limping and favoring his rear leg. A 2-inch diameter area of raw red moist skin was observed where hair had fallen out. Upon close inspection a 1,½ inch suppurating cut was observed which created a dark line leading to a 1 cm×2 cm section of blackened skin. Dog had been topically treated with Triamcinolone Acetonide and bandaged previously to no effect.
The ratio was 1:1. At the second and third interval Neosporin™ was mixed in hand with other compositions in a 1:1:1 ratio. Dog was not observed to lick wound.

human cells = details: Ingram et al 2004; cited from earlier work
[6] = Topical treatment of psoriasis on chin and face; assay type: in vivo, human; details: three days twice daily
Description: Patient was treated on the chin for three days twice daily. On their right side of the chin, sodium chlorite solution was applied alone.
They applied SC combined with CCT's herbal treatment to their right side of their chin. SC+ a composition containing 3.66 g thymol, 3.66 g menthol, 3.66 g menthyl acetate in 100 ml grapeseed oil with 0.25 ounce beeswax.

Candida albicans = details: at 0.5%
[7] = test system: dermataphytes that cause tinea pedis and onychomycosis

Description for Candidia albicans: An in vitro determination of the use of sodium chlorite on human tissue culture and broth culture of Candidia albicans was performed.

Compound: Clc1ccccc1C(c1ccccc1)(c1ccccc1)n1ccnc1 [1% Clotrimazole cream, Clotrimazole]
- psoriasis symptoms two days later ([1]; Treatment 3, elbow section): White dry scales were not perceived and the rash was less apparent
- Result after 3 days treated twice daily [1]: plaques are not present

Compound: N#C/C(=C1/SC[C@@H](c2ccc(Cl)cc2Cl)S1)n1ccnc1 [1% Luliconazole cream, luliconazole]
- psoriasis symptoms one day later ([1]; Treatment 2, elbow section): White dry scales were perceived though the rash was less apparent
- Result after 3 days treated twice daily [1]: Red Rash and scaling
- Result after 3 days treated twice daily ([1]; listed as Luliconazole): red rash and plaques were present

Compound: C=C1CCN([C@H](C)[C@](O)(Cn2cncn2)c2ccc(F)cc2F)CC1 [10% efinaconazole, efinaconazole]
- Result after 3 days treated twice daily [1]: Rash and white scaling
- Result after 3 days treated twice daily ([1]; listed as efinaconazole): white dry scales and evidence of rash

- MIC ([2]; combined with sodium chlorite): < 0.03 µg/mL
- MIC ([2]; itraconazole alone): 0.06 µg/mL (≈ 0.085 µM)
- decrease of itraconazole MIC ([2]; combined with sodium chlorite): at least 2 fold
- MIC ([3]; combined with sodium chlorite): < 0.03 µg/mL
- MIC ([3]; itraconazole alone): 0.125 µg/mL (≈ 0.177 µM)
- decrease of itraconazole MIC ([3]; combined with sodium chlorite): at least 4 fold
Compound: CCC(C)n1ncn(-c2ccc(N3CCN(c4ccc(OCC5COC(Cn6cncn6)(c6ccc(Cl)cc6Cl)O5)cc4)CC3)cc2)c1=O (stereo not shown) [Itraconazole, itraconazole]

Compound: CC(=O)N1CCN(c2ccc(OCC3COC(Cn4ccnc4)(c4ccc(Cl)cc4Cl)O3)cc2)CC1 (stereo not shown) [Ketaconazole]
- effectiveness against fungal infection of nails/skin [4]: excellent results

Compound: CN(C/C=C/C#CC(C)(C)C)Cc1cccc2ccccc12 [Lamisil]
- local tolerance of earlier treatment ([5]; human, in vivo): stinging
- result of earlier treatment of the subject's Dyshidrosis ([5]; subject's history before the study): no significant amelioration of symptoms

Compound: CC1(C)O[C@@H]2C[C@H]3[C@@H]4CCC5=CC(=O)C=C[C@]5(C)[C@@]4(F)[C@@H](O)C[C@]3(C)[C@]2(C(=O)CO)O1 [Triamcinolone Acetonide]
- wound outcome (Treatment of dog wound): no effect

Compound: chlorite ions
- concentration shown to be non-toxic to human cells (human cells): 100 ppm

Compound: sodium chlorite
- drop of sodium chlorite's MIC ([2]; combined with itraconazole): eight-fold
- drop of sodium chlorite's MIC ([3]; combined with itraconazole): two-fold
- recurrence of psoriasis symptoms in treated area of chin, 92 days later [6]: no recurrence of psoriasis symptoms
- Candidia albicans killing (Candidia albicans; 0.5% sodium chlorite in culture broth): effective in killing
- Candidia albicans killing (Candidia albicans; 0.5% sodium chlorite in culture broth, listed as Sodium Chlorite): Yes
- Candidia albicans killing (Candidia albicans; 2.0% sodium chlorite in culture broth): effective in killing
- Candidia albicans killing (Candidia albicans; 2.0% sodium chlorite in culture broth, listed as Sodium Chlorite): Yes
- toxicity against Candidas albicans (Candidia albicans; at 0.5%): 100%
- regrowth of Candidia albicans (Candidia albicans; continued culture without sodium chlorite): did not result in regrowth
- side by side comparison with standard antifungal agent in vitro (Candidia albicans; versus fluconazole): significantly superior results compared to fluconazole
- effect on Candida albicans on agar plates (Candida albicans): kills Candida albicans rather than simply inhibiting its growth
- effective concentration when combined with azole antifungals ([7]; combined with antifungals in the azole group): ≥ 0.015%
- effective concentrations alone against dermataphytes ([7]; sodium chlorite alone, broth culture and in vivo): 0.25-4%
